{"source": "patent US20250270316A1", "about": "“PHARMACEUTICAL COMBINATION AND USE THEREOF” (TIANJIN LIPOGEN TECHNOLOGY CO., LTD, priority 2021, published 2025)", "format_in_all_cases": "in vivo, mouse", "key": {"[1]": {"system": "colorectal cancer MC38 humanized CD274 cell", "test": "Example 8: MC38 humanized CD274 xenograft model, RB0005 and Gardiquimod", "details": "i.t. every other day x3; RB0005 1 mg/kg, Gardiquimod 5 mg/kg, combination as single preparation", "description": "(§1) Tumor cells were cultured and passaged, cells were collected at the logarithmic phase, and formulated into a concentration of (1.0×10^7) per milliliter of cell suspension with 0.1 ml (with a cell number of 1.0×10^6) being injected into the right flank of the mice, the tumor grew to a diameter of about 5 mm within about 10 days, and the model was successfully established, they were randomly divided into 8 groups.\n(§2) Tumor weight inhibitory rate=[1−average tumor weight of experimental group (G2/G3/G4)/average tumor weight of negative control group G1)]×100%.\nAnti-Tumor Effect of Pharmaceutical Combination Consisting of PD-L1 Inhibitor RB0005 and Other Types of TLR7/8 Agonists (Gardiquimod)\n(§3) After a colorectal cancer MC38 humanized CD274 cell subcutaneously-Xenograft tumor model in mice was successfully established, random grouping was performed, and each group had 6-8 mice, which were administered once every two days with a total of 3 times."}, "[2]": {"system": "colorectal cancer CT26 humanized CD274 cell", "test": "Example 11: CT26 humanized CD274 xenograft model, LPG2006", "details": "CT26.sgcd274 CD274, i.t. every other day x3, Imiquimod 5 mg/kg", "description": "as §1, §2\nCombination LPG2006 (Single Dosage Form) Consisting of PD-L1 Inhibitor RB0005 and Imiquimod, CT26 Tumor Model\nAfter a colorectal cancer CT26 humanized CD274 cell subcutaneous xenograft tumor model in mice was successfully established, random grouping was performed, and each group had 6-8 mice, which were administered once every two days with a total of 3 times."}, "[3]": {"system": "colorectal carcinoma MC38", "test": "Example 1: MC38 subcutaneous xenograft tumor model in mice, RB0005 and Imiquimod", "details": "as of the end; i.t. every other day; RB0005 1 mg/kg, Imiquimod 5 mg/kg, combination in single dosage form; tumor volume >2000 mm^3 counted as death", "description": "C57/BL6JNifdc mouse, female, body weight of 17-22 g, aged 6-8 weeks, SPF grade, purchased from Beijing Vital River Laboratory Animal Technology Co., Ltd. [Experimental Animal Quality Certificate No.: SCXK (Beijing) 2016-0006].\nas §1, §2\nThe anti-tumor effect of a pharmaceutical combination composed of PD-L1 inhibitor RB0005 and a TLR7/TLR8 agonist Imiquimod (LPG2005) was tested using a xenograft tumor model, i.e., the inhibitory effect on the growth of subcutaneous xenograft tumor in mice.\nAfter successfully establishing a subcutaneous xenograft tumor model of colorectal carcinoma MC38 in mice, it was randomly grouped with 6-8 mice per group. The mice were administered once every two days, with a total of three times followed by observation until 15 days."}, "[4]": {"system": "colorectal carcinoma MC38 (humanized PD-1 model)", "test": "Example 2: humanized PD-1 MC38 subcutaneous xenograft tumor model in mice, RB0004 and Imiquimod", "details": "Imiquimod 5 mg/kg i.t., RB0004 10 mg/kg i.p.", "description": "as §1, §2\nThe anti-tumor effect of a pharmaceutical combination composed of PD-1 inhibitor RB0004 and a TLR7/TLR8 agonist Imiquimod was tested using a xenograft tumor model, i.e., the inhibitory effect on the growth of subcutaneous xenograft tumor in mice.\nAfter successfully establishing a humanized PD-1 subcutaneous xenograft tumor model of colorectal carcinoma MC38 in mice, they were randomly grouped with 8 mice per group and administered once every two days."}, "colorectal cancer MC38": {"system": "colorectal cancer MC38", "test": "Example 3: MC38 xenograft tumor model in mice, RB0005 and different doses of Imiquimod", "details": "i.t. every other day x3; RB0005 1 mg/kg (G2), Imiquimod 5 mg/kg (G5), both in single dosage form (G8)", "description": "as §1, §2\nA colorectal cancer MC38 Xenograft tumor model in mice was used to test an anti-tumor effect of a pharmaceutical combination consisting of a PD-L1 inhibitor RB0005 and different doses of TLR7/TLR8 agonists Imiquimod, that is, the inhibitory effect on the growth of subcutaneous xenograft tumor in mice.\nAfter a subcutaneous xenograft tumor model in mice was successfully established, random grouping was performed, and each group had 8 mice, which were administered once every two days."}, "[5]": {"system": "colorectal cancer MC38 humanized PD1", "test": "Example 10.1: MC38 humanized PD1 xenograft model, marketed PD-1 inhibitors and Imiquimod", "details": "i.t. every other day x3; PD-1 antibody 10 mg/kg, Imiquimod (LPG2005) 5 mg/kg, combinations as single preparation", "description": "as §1, §2\n10.1 Anti-Tumor Effect of Composite Preparation (Single Dosage Form) Consisting of a Marketed PD-1 or PD-L1 Inhibitor and a TLR7/8 Agonist Imiquimod\nAfter a colorectal cancer MC38 humanized PD1 subcutaneous xenograft tumor model was successfully established, random grouping was performed, and each group had 6-8 mice, which were administered once every two days with a total of 3 times."}, "[6]": {"system": "colorectal cancer MC38 humanized CD274 cell", "test": "Example 10.2: MC38 humanized CD274 xenograft model, Durvalumab or RB0005 and Imiquimod", "details": "i.t. every other day x3; Durvalumab or RB0005 1 mg/kg, Imiquimod (LPG2005) 5 mg/kg, combinations as single preparation", "description": "as §1, §2, §3"}, "[7]": {"system": "colorectal cancer MC38 humanized CD274 cell", "test": "Example 12: MC38 humanized CD274 xenograft model, sequential administration of Imiquimod and RB0005", "details": "i.t.; RB0005 1 mg/kg, Imiquimod 5 mg/kg; G4 sequential: agonist first, PD-L1 inhibitor after 48 h, total of 3 times", "description": "as §1, §2"}, "[8]": {"system": "colorectal cancer MC38 humanized CD274 cell", "test": "Example 6: MC38 humanized CD274 xenograft model, LPG2006 single dosage form with different Imiquimod doses", "details": "i.t. every other day x3", "description": "as §1, §2, §3"}, "[9]": {"system": "colorectal cancer MC38 humanized CD274 cell", "test": "Example 7: MC38 humanized CD274 xenograft model, intraperitoneal vs intratumoral administration", "details": "every other day x3", "description": "as §1, §2, §3"}, "[10]": {"system": "colorectal cancer MC38 humanized CD274 cell", "test": "Example 9: MC38 humanized CD274 xenograft model, RB0005 and Resiquimod", "details": "i.t. every other day x3; RB0005 1 mg/kg, Resiquimod 5 mg/kg, combination as single preparation", "description": "as §1, §2\nAnti-Tumor Effect of Pharmaceutical Combination Consisting of PD-L1 Inhibitor RB0005 and Other Types of TLR7/8 Agonists (Resiquimod)\nas §3"}, "[11]": {"details": "Imiquimod 6.32 mg/kg (G4), with RB0005 1 mg/kg in single dosage form (G7)"}, "[12]": {"details": "Imiquimod 20 mg/kg (G5), with RB0005 1 mg/kg in single dosage form (G8)"}, "[13]": {"details": "RB0005 1 mg/kg (G2), Imiquimod 2 mg/kg (G3), both in single dosage form (G6)"}, "[14]": {"details": "intratumoral injection, RB0005 1 mg/kg (G4), Imiquimod 5 mg/kg (G6), LPG2006 single preparation (G8)"}}, "note": "Where “and” joins values, the source holds several entries; their conditions need not be identical. Equal entries are not always repeated.", "data": [{"molecule": "CCNCc1nc2c(N)nc3ccccc3c2n1CC(C)(C)O", "note": "[Gardiquimod]", "values": [{"measurement": "IRTW (tumor weight inhibition rate)", "setting": "[1]", "result": "42% and 41.6%"}, {"measurement": "Tumor Weight", "setting": "[1]", "result": 1.81, "unit": "g"}]}, {"molecule": "CC(C)Cn1cnc2c(N)nc3ccccc3c21", "note": "[Imiquimod]", "values": [{"measurement": "IRTW (tumor weight inhibition rate)", "setting": "[2]; LPG2006 (RB0005 1 mg/kg + LPG2005 5 mg/kg)", "result": 42, "unit": "%"}, {"measurement": "Tumor Weight", "setting": "[2]; RB0005 1 mg/kg, LPG2006 single preparation", "result": 1.05, "unit": "g"}, {"measurement": "survival rate in mice", "setting": "[3]", "result": 50, "unit": "%"}, {"measurement": "IRTW (tumor weight inhibition rate)", "setting": "[4]; every other day x3", "result": 42.71, "unit": "%"}, {"measurement": "Tumor Weight", "setting": "[4]; every other day x3", "result": 3.62, "unit": "g"}, {"measurement": "survival rate in mice", "setting": "[4]; as of the end, every other day x3, combination in separate dosage forms", "result": 40, "unit": "%"}, {"measurement": "growth of the tumor volume", "setting": "[4]; vs solvent control", "result": "slower than that in the solvent control group"}, {"measurement": "IRTW (tumor weight inhibition rate)", "setting": "colorectal cancer MC38", "result": 23.35, "unit": "%"}, {"measurement": "Tumor Weight", "setting": "colorectal cancer MC38", "result": 2.70, "unit": "g"}, {"measurement": "Tumor Weight", "setting": "[5]", "result": 1.93, "unit": "g"}, {"measurement": "IRTW (tumor weight inhibition rate)", "setting": "[6]", "result": 48.8, "unit": "%"}, {"measurement": "Tumor Weight", "setting": "[6]", "result": 0.73, "unit": "g"}, {"measurement": "IRTW (tumor weight inhibition rate)", "setting": "[7]", "result": 34.8, "unit": "%"}, {"measurement": "Tumor Weight", "setting": "[7]", "result": 1.30, "unit": "g"}, {"measurement": "IRTW (tumor weight inhibition rate)", "setting": "[8]; [11]", "result": 58.5, "unit": "%"}, {"measurement": "Tumor Weight", "setting": "[8]; [11]", "result": 2.0, "unit": "g"}, {"measurement": "IRTW (tumor weight inhibition rate)", "setting": "[8]; [12]", "result": 47.4, "unit": "%"}, {"measurement": "Tumor Weight", "setting": "[8]; [12]", "result": 1.8, "unit": "g"}, {"measurement": "IRTW (tumor weight inhibition rate)", "setting": "[8]; [13]", "result": 27.5, "unit": "%"}, {"measurement": "Tumor Weight", "setting": "[8]; [13]", "result": 2.5, "unit": "g"}, {"measurement": "Tumor Weight", "setting": "[9]; intraperitoneal injection, RB0005 1 mg/kg (G3), Imiquimod 5 mg/kg (G5), LPG2006 single preparation (G7)", "result": 3.74, "unit": "g"}, {"measurement": "IRTW (tumor weight inhibition rate)", "setting": "[9]; [14]", "result": 23.5, "unit": "%"}, {"measurement": "Tumor Weight", "setting": "[9]; [14]", "result": 2.6, "unit": "g"}]}, {"molecule": "CCOCc1nc2c(N)nc3ccccc3c2n1CC(C)(C)O", "note": "[Resiquimod]", "values": [{"measurement": "IRTW (tumor weight inhibition rate)", "setting": "[10]", "result": "40% and 40.2%"}, {"measurement": "Tumor Weight", "setting": "[10]", "result": 1.81, "unit": "g"}]}, {"molecule": "Durvalumab: marketed anti PD-L1 monoclonal antibody", "values": [{"measurement": "IRTW (tumor weight inhibition rate)", "setting": "[6]", "result": "21% and 20.9%"}, {"measurement": "Tumor Weight", "setting": "[6]", "result": 1.13, "unit": "g"}]}, {"molecule": "Sintilimab: marketed PD-1 inhibitor monoclonal antibody", "values": [{"measurement": "IRTW (tumor weight inhibition rate)", "setting": "[5]", "result": 3.9, "unit": "%"}, {"measurement": "Tumor Weight", "setting": "[5]", "result": 1.47, "unit": "g"}]}, {"molecule": "Toripalimab: marketed PD-1 inhibitor monoclonal antibody", "values": [{"measurement": "IRTW (tumor weight inhibition rate)", "setting": "[5]", "result": 49.7, "unit": "%"}, {"measurement": "Tumor Weight", "setting": "[5]", "result": 0.92, "unit": "g"}]}, {"molecule": "Tislelizumab: marketed PD-1 inhibitor monoclonal antibody (antibody, chains of the INN, looked up) heavy: QVQLQESGPGLVKPSETLSLTCTVSGFSLTSYGVHWIRQPPGKGLEWIGVIYADGSTNYNPSLKSRVTISKDTSKNQVSLKLSSVTAADTAVYYCARAYGNYWYIDVWGQGTTVTVSSASTKGPSVFPLAPCSRSTSESTAALGCLVKDYFPEPVTVSWNSGALTSGVHTFPAVLQSSGLYSLSSVVTVPSSSLGTKTYTCNVDHKPSNTKVDKRVESKYGPPCPPCPAPPVAGGPSVFLFPPKPKDTLMISRTPEVTCVVVAVSQEDPEVQFNWYVDGVEVHNAKTKPREEQFNSTYRVVSVLTVVHQDWLNGKEYKCKVSNKGLPSSIEKTISKAKGQPREPQVYTLPPSQEEMTKNQVSLTCLVKGFYPSDIAVEWESNGQPENNYKTTPPVLDSDGSFFLYSKLTVDKSRWQEGNVFSCSVMHEALHNHYTQKSLSLSLG light: DIVMTQSPDSLAVSLGERATINCKSSESVSNDVAWYQQKPGQPPKLLINYAFHRFTGVPDRFSGSGYGTDFTLTISSLQAEDVAVYYCHQAYSSPYTFGQGTKLEIKRTVAAPSVFIFPPSDEQLKSGTASVVCLLNNFYPREAKVQWKVDNALQSGNSQESVTEQDSKDSTYSLSSTLTLSKADYEKHKVYACEVTHQGLSSPVTKSFNRGEC", "values": [{"measurement": "IRTW (tumor weight inhibition rate)", "setting": "[5]", "result": 61.4, "unit": "%"}, {"measurement": "Tumor Weight", "setting": "[5]", "result": 0.59, "unit": "g"}]}, {"molecule": "Camrelizumab: marketed PD-1 inhibitor monoclonal antibody (antibody, chains of the INN, looked up, V domains shown) VH: EVQLVESGGGLVQPGGSLRLSCAASGFTFSSYMMSWVRQAPGKGLEWVATISGGGANTYYPDSVKGRFTISRDNAKNSLYLQMNSLRAEDTAVYYCARQLYYFDYWGQGTTVTVSS VL: DIQMTQSPSSLSASVGDRVTITCLASQTIGTWLTWYQQKPGKAPKLLIYTATSLADGVPSRFSGSGSGTDFTLTISSLQPEDFATYYCQQVYSIPWTFGGGTKVEIK", "values": [{"measurement": "IRTW (tumor weight inhibition rate)", "setting": "[5]", "result": 19.6, "unit": "%"}, {"measurement": "Tumor Weight", "setting": "[5]", "result": 1.23, "unit": "g"}]}]}
